Earlier results as cited in US20240207240A1, “Method for Improving or Treating Cognitive Dysfunction Complicating HIV-associated Cryptococcal Meningitis with Lenalidomide” (The First Affiliated Hospital Zhejiang University School of …, priority 2022, published 2024).

Experiments:
[1] = in vivo; cited from earlier work
[2] = cited from earlier work

Structure (SMILES): O=C1CCC(N2C(=O)c3ccccc3C2=O)C(=O)N1 (stereo not drawn) [thalidomide]
- side effects [1]: bone marrow suppression, cardiotoxicity, vascular thrombosis, and neurotoxicity
- bioavailability [2]: high

Structure (SMILES): Nc1cccc2c1C(=O)N(C1CCC(=O)NC1=O)C2=O (stereo not drawn) [pomalidomide]
- bioavailability [2]: high
